Consider four compounds from patent US4362736A, “Guanidinothiazole compounds, and medical compositions containing them” (Yamanouchi Pharmaceutical Co., Ltd., priority 1979, dated 1982).

One data set deals with H2 -receptor. The following applies: Ash and Schild; Black et al.; cited from earlier work.
The next data set in a line: Acute toxicity in mice. As to conditions: mouse, in vivo, iv, 7 days observation, up and down method; read-out: (C) LD50 in mice. How it is done:
Drugs were injected intravenously in male ICR mice weighing about 35 g at a rate of 0.1 ml/10 g/10 sec and the animals were kept under observation for 7 days. LD50 values were determined by the up and down method using 10 animals. The data are shown in Table I, under column entitled (C).

The subject of data set [1] is Gastric acid secretion. Kind of data set: Gastric acid secretion in anesthetized dogs (histamine-induced). The following applies: Canis lupus familiaris, iv, histamine infusion 160 μg/Kg-hr, dose producing 50% inhibition of acid output. The format is in vivo, Mongrel dogs. The protocol: Mongrel dogs weighing 8 to 15 Kg were deprived of food for 24 hrs. and anesthetized intravenously with pentobarbital (30 mg/Kg). […] The gastric juice was collected from the gastric cannula by gravity drainage every 15 min. Test compounds were given intravenously after gastric secretion induced by a continuous intravenous infusion of histamine (160 μg/Kg-hr) reached a steady state.

Data set [2] relates to Gastric acid secretion. The data set can be described thus: Gastric acid secretion in pylorus-ligated rats. The format is in vivo, Male Wister rats. The following applies: Rattus norvegicus, intraduodenal, 4 hrs., probit method, read-out: (B) Pylorus-ligated rats ED50. How it is done: Male Wister rats weighing about 200 g were deprived of food for 24 hrs. but allowed free access to water prior to the experiments in individual cages. […] Test compounds were intraduodenally given immediately after the ligation of pylorus. The animals were sacrificed 4 hrs. after drug administration and gastric contents were collected. […] The percent inhibition of gastric secretion by each dose of drugs was calculated from the acid outputs of control and of treated groups. ED50 values were determined by the probit method.

The structures appear in SMILES notation. Counter-ions that a name gives are not always drawn.

Turning to `C/N=C(\S)NCCSCc1[nH]cnc1C` [metiamide], the “inhibition of histamine effects on gastric acid secretion and heart rate in isolated guinea pig atrium” value in the data set with H2 -receptor was “antagonized”.
The term LD50 denotes the dose expected to kill half of the subjects tested. What is called ED50 is the dose at which the effect has come halfway, by size or by number of responders. For the compound `NC(=O)N=C(N)CCSCc1csc(N=C(N)N)n1` [Example 9, N-carbamoyl-3-[(2-guanidinothiazol-4-yl)methylthio]propionamidine.di-hydrochloride], the LD50 at 168 h in “Acute toxicity in mice” came to 97.8 mg/kg. The ED50 in the data set with Gastric acid secretion [1] turned out to be 0.0064 ± 0.0006 mg/kg; in the data set on Gastric acid secretion [2] it was 12.7 mg/kg.
As to `COc1ccc(CN(CCN(C)C)c2ccccn2)cc1` [mepyramine], the “inhibition of histamine effects on gastric acid secretion and heart rate in isolated guinea pig atrium” value with H2 -receptor is “not inhibited”.
As for `N#CNC(=N)CCSCc1csc(NC(=N)N)n1` [Example 3, N-cyano-3-[(2-guanidinothiazol-4-yl)methylthio]propionamidine], in “Acute toxicity in mice”, the LD50 at 168 h was 147 mg/kg. Besides, the ED50 in the data set on Gastric acid secretion [1] stood at 0.0183 ± 0.0007 mg/kg; in the data set on Gastric acid secretion [2], 13.8 mg/kg.
